Data from ChEMBL document CHEMBL1151400, “Plant antiviral agents. III. Isolation of alkaloids from Clivia miniata Regel (Amaryllidaceae)” (J Nat Prod, 1982).
The source made the active and inactive calls. The rule behind the calls is not given here.

Tests used:
[1] = tested on: Enterovirus C; assay: Antiviral activity against Poliovirus infected african green monkey Vero cells assessed as reduction in virus-induced cytopathic effect at 100 ug/mL after 96 hrs measured as viral titer per ml by microscopy; format: functional
[2] = tested on: Simplexvirus; assay: Antiviral activity against Herpes simplex virus infected african green monkey Vero cells assessed as reduction in virus-induced cytopathic effect at 100 ug/mL after 96 hrs measured as viral titer per ml by microscopy; format: functional
[3] = tested on: Enterovirus C; assay: Antiviral activity against Poliovirus infected african green monkey Vero cells assessed as reduction in virus-induced cytopathic effect at 50 ug/mL after 96 hrs measured as viral titer per ml by microscopy; format: functional
[4] = tested on: Semliki Forest virus; assay: Antiviral activity against Semliki forest virus infected african green monkey Vero cells assessed as reduction in virus-induced cytopathic effect at 50 ug/mL after 96 hrs measured as viral titer per ml by microscopy; format: functional
[5] = tested on: Simplexvirus; assay: Antiviral activity against Herpes simplex virus infected african green monkey Vero cells assessed as reduction virus-induced cytopathic effect at 50 ug/mL after 96 hrs measured as viral titer per ml by microscopy; format: functional
[6] = tested on: Measles morbillivirus; assay: Antiviral activity against Measles virus infected african green monkey Vero cells assessed as reduction in virus-induced cytopathic effect at 50 ug/mL after 96 hrs measured as viral titer per ml by microscopy; format: functional
[7] = tested on: Semliki Forest virus; assay: Antiviral activity against Semliki forest virus infected african green monkey Vero cells assessed as reduction in virus-induced cytopathic effect at 100 ug/mL after 96 hrs measured as viral titer per ml by microscopy; format: functional
[8] = tested on: Measles morbillivirus; assay: Antiviral activity against Measles virus infected african green monkey Vero cells assessed as reduction in virus-induced cytopathic effect at 100 ug/mL after 96 hrs measured as viral titer per ml by microscopy; format: functional
[9] = tested on: Simplexvirus; assay: Antiviral activity against Herpes simplex virus infected african green monkey Vero cells assessed as reduction in virus-induced cytopathic effect at 20 ug/mL after 96 hrs measured as viral titer per ml by microscopy; format: functional
[10] = tested on: Simplexvirus; assay: Antiviral activity against Herpes simplex virus infected african green monkey Vero cells assessed as reduction in virus-induced cytopathic effect at 2.5 ug/mL after 96 hrs measured as viral titer per ml by microscopy; format: functional
[11] = tested on: Semliki Forest virus; assay: Antiviral activity against Semliki forest virus infected african green monkey Vero cells assessed as reduction in virus-induced cytopathic effect at 2.5 ug/mL after 96 hrs measured as viral titer per ml by microscopy; format: functional
[12] = tested on: Simplexvirus; assay: Antiviral activity against Herpes simplex virus infected african green monkey Vero cells assessed as reduction in virus-induced cytopathic effect at 10 ug/mL after 96 hrs measured as viral titer per ml by microscopy; format: functional
[13] = tested on: Enterovirus C; assay: Antiviral activity against Poliovirus infected african green monkey Vero cells assessed as reduction in virus-induced cytopathic effect at 2.5 ug/mL after 96 hrs measured as viral titer per ml by microscopy; format: functional
[14] = tested on: Vero; assay: Cytotoxicity against Semliki forest virus infected african green monkey Vero cells assessed as monolayer destruction at 100 ug/mL; format: cell-based; details: chlorocebus sabaeus
[15] = Therapeutic index, ratio of cytotoxicity against african green monkey Vero cells to antiviral activity against Herpes simplex virus; format: cell-based; details: read-out: TI
[16] = tested on: Enterovirus C; assay: Antiviral activity against Poliovirus infected african green monkey Vero cells assessed as reduction of virus-induced cytopathic effect at 1 ug/mL after 4 days; format: functional, organism-based
[17] = tested on: Enterovirus C; assay: Antiviral activity against Poliovirus infected african green monkey Vero cells assessed as reduction in virus-induced cytopathic effect at 20 ug/mL after 96 hrs measured as viral titer per ml by microscopy; format: functional
[18] = tested on: Semliki Forest virus; assay: Antiviral activity against Semliki forest virus infected african green monkey Vero cells assessed as reduction in virus-induced cytopathic effect at 10 ug/mL after 96 hrs measured as viral titer per ml by microscopy; format: functional
[19] = tested on: Vero; assay: Cytotoxicity against Measles virus infected african green monkey Vero cells assessed as monolayer destruction at 50 ug/mL; format: cell-based; details: chlorocebus sabaeus
[20] = tested on: Measles morbillivirus; assay: Antiviral activity against Measles virus infected african green monkey Vero cells assessed as reduction in virus-induced cytopathic effect at 5 ug/mL after 96 hrs measured as viral titer per ml by microscopy; format: functional
[21] = tested on: Vero; assay: Cytotoxicity against african green monkey Vero cells assessed as monolayer destruction at 50 ug/mL after 24 hrs by trypan blue exclusion test; format: cell-based; details: chlorocebus sabaeus
[22] = tested on: Enterovirus C; assay: Antiviral activity against Poliovirus infected african green monkey Vero cells assessed as reduction in virus-induced cytopathic effect at 5 ug/mL after 96 hrs measured as viral titer per ml by microscopy; format: functional
[23] = tested on: Vero; assay: Cytotoxicity against Semliki forest virus infected african green monkey Vero cells assessed as monolayer destruction at 50 ug/mL; format: cell-based; details: chlorocebus sabaeus
[24] = tested on: Vero; assay: Cytotoxicity against Herpes simplex virus infected african green monkey Vero cells assessed as monolayer destruction at 100 ug/mL; format: cell-based; details: chlorocebus sabaeus
[25] = tested on: Enterovirus C; assay: Antiviral activity against Poliovirus infected african green monkey Vero cells assessed as reduction of virus-induced cytopathic effect at < 1 ug/mL after 4 days; format: functional, organism-based
[26] = tested on: Simplexvirus; assay: Antiviral activity against Herpes simplex virus infected african green monkey Vero cells assessed as reduction in virus-induced cytopathic effect at 5 ug/mL after 96 hrs measured as viral titer per ml by microscopy; format: functional
[27] = tested on: Vero; assay: Cytotoxicity against african green monkey Vero cells assessed as monolayer destruction at 10 ug/mL after 24 hrs by trypan blue exclusion test; format: cell-based; details: chlorocebus sabaeus
[28] = tested on: Vero; assay: Cytotoxicity against Poliovirus infected african green monkey Vero cells assessed as monolayer destruction at 50 ug/mL; format: cell-based; details: chlorocebus sabaeus
[29] = tested on: Vero; assay: Cytotoxicity against Poliovirus infected african green monkey Vero cells assessed as monolayer destruction at 100 ug/mL; format: cell-based; details: chlorocebus sabaeus
[30] = tested on: Vero; assay: Cytotoxicity against Measles virus infected african green monkey Vero cells assessed as monolayer destruction at 100 ug/mL; format: cell-based; details: chlorocebus sabaeus
[31] = tested on: Measles morbillivirus; assay: Antiviral activity against Measles virus infected african green monkey Vero cells assessed as reduction in virus-induced cytopathic effect at 2.5 ug/mL after 96 hrs measured as viral titer per ml by microscopy; format: functional
[32] = tested on: Semliki Forest virus; assay: Antiviral activity against Semliki forest virus infected african green monkey Vero cells assessed as reduction in virus-induced cytopathic effect at 5 ug/mL after 96 hrs measured as viral titer per ml by microscopy; format: functional
[33] = tested on: Vero; assay: Effect on african green monkey Vero cell growth assessed as doubling of cell generation at 1 ug/mL after 24 hrs by trypan blue exclusion test; format: cell-based; details: chlorocebus sabaeus
[34] = tested on: Semliki Forest virus; assay: Antiviral activity against Semliki forest virus infected african green monkey Vero cells assessed as reduction in virus-induced cytopathic effect at 20 ug/mL after 96 hrs measured as viral titer per ml by microscopy; format: functional
[35] = tested on: Measles morbillivirus; assay: Antiviral activity against Measles virus infected african green monkey Vero cells assessed as reduction in virus-induced cytopathic effect at 20 ug/mL after 96 hrs measured as viral titer per ml by microscopy; format: functional
[36] = Therapeutic index, ratio of cytotoxicity against african green monkey Vero cells to antiviral activity against Semliki forest virus; format: cell-based; details: read-out: TI
[37] = tested on: Enterovirus C; assay: Antiviral activity against Poliovirus infected african green monkey Vero cells assessed as reduction in virus-induced cytopathic effect at 10 ug/mL after 96 hrs measured as viral titer per ml by microscopy; format: functional
[38] = tested on: Measles morbillivirus; assay: Antiviral activity against Measles virus infected african green monkey Vero cells assessed as reduction in virus-induced cytopathic effect at 10 ug/mL after 96 hrs measured as viral titer per ml by microscopy; format: functional
[39] = tested on: Vero; assay: Cytotoxicity against Poliovirus infected african green monkey Vero cells assessed as monolayer destruction at > 25 ug/mL; format: cell-based; details: chlorocebus sabaeus
[40] = tested on: Vero; assay: Cytotoxicity against Herpes simplex virus infected african green monkey Vero cells assessed as monolayer destruction at 50 ug/mL; format: cell-based; details: chlorocebus sabaeus
[41] = Therapeutic index, ratio of cytotoxicity against african green monkey Vero cells to antiviral activity against Poliovirus; format: cell-based; details: read-out: TI
[42] = tested on: Enterovirus C; assay: Antiviral activity against Poliovirus infected african green monkey Vero cells assessed as reduction of virus-induced cytopathic effect at 1 ug/mL after 96 hrs by microscopy; format: functional, organism-based
[43] = Therapeutic index, ratio of cytotoxicity against african green monkey Vero cells to antiviral activity against Measles virus; format: cell-based; details: read-out: TI
[44] = tested on: Vero; assay: Cytotoxicity against african green monkey Vero cells assessed as monolayer destruction at 25 ug/mL after 24 hrs by trypan blue exclusion test; format: cell-based; details: chlorocebus sabaeus

Compound: CN1CC[C@@H]2C[C@H](O)[C@@H]3OC(=O)c4cc5c(cc4[C@H]3[C@@H]21)OCO5 [CLIVONINE]
- pTCD50 [1]: 10
- pTCD50 [2]: 10
- pTCD50 [3]: 1
- pTCD50 [4]: 1
- pTCD50 [5]: 1
- pTCD50 [6]: 1
- pTCD50 [7]: 10
- pTCD50 [8]: 1

Compound: O[C@H]1[C@H]2c3cc4c(cc3CN3CCC(=C[C@@H]1O)[C@H]23)OCO4 [LYCORINE]
- pTCD50 [9]: 1000
- pTCD50 [10]: 100
- pTCD50 [11]: 100
- pTCD50 [12]: 1000
- pTCD50 [13]: 100
- Activity [14]: Toxic
- selectivity ratio [15]: 10
- Activity [16]: Active
- pTCD50 [17]: 10000
- pTCD50 [18]: 1000
- Activity [19]: Toxic
- pTCD50 [20]: 100
- Activity [21]: Toxic
- pTCD50 [22]: 100
- Activity [23]: Toxic
- Activity [24]: Toxic
- Activity [25]: inactive
- pTCD50 [26]: 1000
- Activity [27]: Non-toxic
- Activity [28]: Toxic
- Activity [29]: Toxic
- Activity [30]: Toxic
- pTCD50 [31]: 100
- pTCD50 [32]: 1000
- Activity [33]: Active
- pTCD50 [34]: 10000
- pTCD50 [35]: 1000
- selectivity ratio [36]: 10
- pTCD50 [37]: 1000
- pTCD50 [38]: 1000
- Activity [39]: Toxic
- Activity [40]: Toxic
- selectivity ratio [41]: 10
- Activity [42]: Active
- selectivity ratio [43]: 10
- Activity [44]: Non-toxic

Compound: CCOC(=O)c1cc(C(=O)O[C@H]2C[C@H]3CCN(C)[C@H]3[C@@H]3c4cc5c(cc4C(=O)O[C@H]32)OCO5)c(C)nc1C [CLIVIAMARTINE]
- pTCD50 [1]: 10
- pTCD50 [2]: 10
- pTCD50 [3]: 1
- pTCD50 [4]: 1
- pTCD50 [5]: 10
- pTCD50 [6]: 1
- pTCD50 [7]: 10
- pTCD50 [8]: 1

Compound: Cc1nc(C)c(C(=O)O[C@H]2C[C@H]3CCN(C)[C@H]3[C@@H]3c4cc5c(cc4C(=O)O[C@H]32)OCO5)cc1C(=O)O[C@H]1C[C@H]2CCN(C)[C@H]2[C@@H]2c3cc4c(cc3C(=O)O[C@H]21)OCO4 [CLIVIMINE]
- pTCD50 [1]: 10
- pTCD50 [9]: 1
- pTCD50 [2]: 1
- pTCD50 [10]: 1
- pTCD50 [11]: 1
- pTCD50 [12]: 1
- pTCD50 [3]: 1
- pTCD50 [13]: 1
- pTCD50 [4]: 1
- pTCD50 [5]: 1
- pTCD50 [6]: 1
- pTCD50 [17]: 1
- pTCD50 [18]: 1
- pTCD50 [20]: 1
- pTCD50 [22]: 1
- pTCD50 [7]: 10
- pTCD50 [26]: 1
- pTCD50 [31]: 1
- pTCD50 [32]: 1
- pTCD50 [34]: 1
- pTCD50 [35]: 1
- pTCD50 [37]: 1
- pTCD50 [38]: 1
- pTCD50 [8]: 1
